# Reference: patent US7863416B2, “Nociceptin-based analgesics” (Synvax, Inc., priority 2001, dated 2011)
# Read-outs that look alike come from different tables or passages of the source. Numbered stars: 1 amine (or outer) side, 2 acyl side, 3 side chain; on linkers, the order of the positions; unused ones are H or OH. Square brackets hold non-standard residues; d marks the D form. Peptide text beside a SMILES is read from it. * marks the point of attachment. ξ: configuration not given here. X1 = O=C([C@H](CCc1ccc([N+](=O)[O-])cc1[N+](=O)[O-])N[*:1])[*:2]; Phe(4-NO2) = N[C@@H](Cc1ccc([N+](=O)[O-])cc1)C(=O)O; Trp(5-CN) = N#Cc1ccc2[nH]cc(C[C@H](N)C(=O)O)c2c1; Phe(4-COOH) = N[C@@H](Cc1ccc(C(=O)O)cc1)C(=O)O; Phe(4-NH2) = Nc1ccc(C[C@H](N)C(=O)O)cc1; Phe(4-F) = N[C@@H](Cc1ccc(F)cc1)C(=O)O; hPhe = N[C@@H](CCc1ccccc1)C(=O)O; ξNip = O=C(C1CCCN([*:1])C1)[*:2]; ξβ2hAla = CC(CN[*:1])C(=O)[*:2]; Phg = N[C@H](C(=O)O)c1ccccc1; Ac6c = NC1(C(=O)O)CCCCC1; Heptanoyl = CCCCCCC(=O)*; Dab = NCC[C@H](N)C(=O)O; Dap = NC[C@H](N)C(=O)O; Propionyl = CCC(=O)*; Butyryl = CCCC(=O)*; Ahx = NCCCCCC(=O)O
# Columns and labels:
# human ORL1 [1] = biological target: T1, human ORL1 (Homo sapiens, UniProt P41146); assay: Stimulation of [35S]GTPγS binding in membranes of CHO cells transfected with human ORL-1; type: biochemical; conditions: for Emax: read-out: % Stimulation ± SEM of [35S]GTPγS binding; for [35S]GTPγS Binding Percent Stimulation: relative to nociceptin; for EC50 ± SEM, stimulation of [35S]GTPγS binding: Table 6
# T1 construct: expressed in transfected cells; host or cells: CHO cells (G418-selected)
# Method: First, CHO cells transfected with human ORL-1 are scraped from tissue culture dishes into 20 mM HEPES, 1 mM EDTA, and then centrifuged at 500×g for 10 minutes. The cells are then re-suspended in this buffer and homogenized using a Polytron Homogenizer.
# The cellular homogenate is next centrifuged at 20,000×g for 20 minutes. Following this, the resulting pellet is re-suspended in a buffer containing 20 mM HEPES, 10 mM MgCl2, and 100 mM NaCl, having a resulting pH of 7.4. The suspension is then re-centrifuged at 20,000×g and suspended once more in the above-listed buffer. The pellet may be frozen at −70° C. prior to the final centrifugation. For the binding assay, membranes (10-20 μg protein) are incubated with [^35S]GTPγγS (50 pM), GDP (usually 10 μM), and the desired compound. The total volume of the mixture is 1 ml, which is incubated for 60 min at 25° C.
# Following incubation, samples are filtered over glass fiber filters and counted. […]
# In these [^35S]GTPγS assays, binding was conducted as described above. EC50 values and percent stimulation were determined using the program Prism.
# human ORL1 [2] = biological target: T1, human ORL1; assay: [3H]nociceptin binding to membranes of CHO cells transfected with human ORL1; conditions: for Hill Coefficient: Table 5
# T1 sequence (P41146 whole entry): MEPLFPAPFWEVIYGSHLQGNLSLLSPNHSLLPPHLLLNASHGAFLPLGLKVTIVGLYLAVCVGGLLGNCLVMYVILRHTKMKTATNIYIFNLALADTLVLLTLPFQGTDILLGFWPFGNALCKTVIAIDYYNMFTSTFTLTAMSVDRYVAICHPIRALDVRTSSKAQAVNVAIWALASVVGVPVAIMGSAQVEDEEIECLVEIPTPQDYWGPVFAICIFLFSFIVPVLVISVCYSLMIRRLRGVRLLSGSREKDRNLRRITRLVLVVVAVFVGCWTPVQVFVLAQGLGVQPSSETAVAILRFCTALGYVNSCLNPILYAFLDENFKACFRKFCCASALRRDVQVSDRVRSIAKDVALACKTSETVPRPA
Compound,Emax (human ORL1 [1]),Hill Coefficient (human ORL1 [2]),other results
"CC(=O)N[C@@H](CCCNC(=N)N)C(=O)N[C@@H](Cc1ccc(O)cc1)C(=O)N[C@@H](Cc1ccc(F)cc1)C(=O)N[C@@H](CCCNC(=N)N)C(=O)N[C@@H](Cc1c[nH]c2ccccc12)C(=O)N[C@@H](CCCNC(=N)N)C(N)=O [VII-61-B, Ac-Arg-Tyr-Phe(4-F)-Arg-Trp-Arg-NH2] (Ac-RY[Phe(4-F)]RWR-NH2)",70.4 ± 1.98%,1.05,Ki (human ORL1 [2]): 0.05 nM
"CC(=O)Nc1ccc(C[C@H](NC(=O)[C@H](Cc2ccc(O)cc2)NC(=O)[C@H](CCCNC(=N)N)NC(C)=O)C(=O)N[C@@H](CCCNC(=N)N)C(=O)N[C@@H](Cc2c[nH]c3ccccc23)C(=O)N[C@@H](CCCNC(=N)N)C(N)=O)cc1 [VII-77-A, Ac-Arg-Tyr-Phe(4-NHAc)-Arg-Trp-Arg-NH2] (Ac-RY[Phe(4-NH2)](Ac)RWR-NH2)",19 ± 6.92%,0.62,
Ac-RY(D)YR(D)WRNH2 [IV-12-B],,,"EC50 (human ORL1 [1]; Table 1, read-out: [35S]GTPγS Binding EC50): > 10000 nM; [35S]GTPγS Binding Percent Stimulation (human ORL1 [1]; Table 1): <10%; IC50 (human ORL1 [2]; read-out: [3H]nociceptin Binding IC50, Table 1): 1140 nM"
"CC(=O)N[C@@H](CCCNC(=N)N)C(=O)N[C@@H](Cc1ccc(O)cc1)C(=O)N[C@H](C(=O)N[C@@H](CCCNC(=N)N)C(=O)N[C@@H](Cc1c[nH]c2ccccc12)C(=O)N[C@@H](CCCNC(=N)N)C(N)=O)c1ccccc1 [VII-13-B, Ac-Arg-Tyr-Phg-Arg-Trp-Arg-NH2] (Ac-RY[Phg]RWR-NH2)",,0.73,
"N=C(N)NCCC[C@H](NC(=O)[C@H](Cc1c[nH]c2ccccc12)NC(=O)[C@H](CCCNC(=N)N)NC(=O)[C@H](Cc1ccc(O)cc1)NC(=O)[C@H](Cc1ccc(O)cc1)NC(=O)[C@H](CCCNC(=N)N)NC(=O)C1CCCNC1)C(N)=O (stereo partly drawn) [VII-1-A, Nipacotyl-Arg-Tyr-Tyr-Arg-Trp-Arg-NH2] (ξNip-RYYRWR-NH2)",< 20%,0.97,"EC50 ± SEM, stimulation of [35S]GTPγS binding (human ORL1 [1]): FLAT"
"CC(=O)N[C@@H](CCCNC(=N)N)C(=O)N[C@@H](CCc1ccccc1)C(=O)N[C@@H](CCc1ccccc1)C(=O)N[C@@H](CCCNC(=N)N)C(=O)N[C@@H](Cc1c[nH]c2ccccc12)C(=O)N[C@@H](CCCNC(=N)N)C(N)=O [VII-49-B, Ac-Arg-hPhe-hPhe-Arg-Trp-Arg-NH2] (Ac-R[hPhe][hPhe]RWR-NH2)",< 20%,0.94,"EC50 ± SEM, stimulation of [35S]GTPγS binding (human ORL1 [1]): FLAT"
"CC(=O)N[C@@H](CCN)C(=O)N[C@@H](Cc1ccc(O)cc1)C(=O)N[C@@H](Cc1ccc(O)cc1)C(=O)N[C@@H](CCCNC(=N)N)C(=O)N[C@@H](Cc1c[nH]c2ccccc12)C(=O)N[C@@H](CCCNC(=N)N)C(N)=O [VII-67-A, Ac-Dab-Tyr-Tyr-Arg-Trp-Arg-NH2] (Ac-[Dab]YYRWR-NH2)",< 20%,1.07,"EC50 ± SEM, stimulation of [35S]GTPγS binding (human ORL1 [1]): FLAT"
"CC(=O)N[C@@H](CCCNC(=N)N)C(=O)N[C@@H](Cc1ccc(F)cc1)C(=O)N[C@@H](Cc1ccc(F)cc1)C(=O)N[C@@H](CCCNC(=N)N)C(=O)N[C@@H](Cc1c[nH]c2ccccc12)C(=O)N[C@@H](CCCNC(=N)N)C(N)=O [VII-33-B, Ac-Arg-Phe(4-F)-Phe(4-F)-Arg-Trp-Arg-NH2] (Ac-R[Phe(4-F)][Phe(4-F)]RWR-NH2)",< 20%,0.89,"EC50 ± SEM, stimulation of [35S]GTPγS binding (human ORL1 [1]): FLAT"
Ac-Arg-Phe(SO3H)-Tyr-Arg-Trp-Arg-NH2 (Ac-R[Phe(SO3H)]YRWR-NH2) [VII-27-B],,1.12,
"CC(=O)N[C@@H](CCCNC(=N)N)C(=O)N[C@@H](Cc1ccc(O)cc1)C(=O)N[C@@H](Cc1ccc(O)cc1)C(=O)N[C@@H](CCCNC(=N)N)C(=O)N[C@@H](Cc1c[nH]c2ccc(C#N)cc12)C(=O)N[C@@H](CCCNC(=N)N)C(N)=O [VII-51-A, Ac-Arg-Tyr-Tyr-Arg-Trp(5-CN)-Arg-NH2] (Ac-RYYR[Trp(5-CN)]R-NH2)",49.1 ± 0.19%,0.7,Ki (human ORL1 [2]): 0.3 ± 0.133 nM
"N=C(N)NCCC[C@H](NC(=O)[C@H](Cc1c[nH]c2ccccc12)NC(=O)[C@H](CCCNC(=N)N)NC(=O)[C@H](Cc1ccc(O)cc1)NC(=O)[C@H](Cc1ccc(O)cc1)NC(=O)[C@H](CCCNC(=N)N)NC(=O)C1(N)CCCCC1)C(N)=O [VII-4-B, 1-aminocyclohexanoyl-Arg-Tyr-Tyr-Arg-Trp-Arg-NH2] (H-[Ac6c]RYYRWR-NH2)",< 20%,1.0,"EC50 ± SEM, stimulation of [35S]GTPγS binding (human ORL1 [1]): FLAT"
"CC(=O)N[C@@H](CCCNC(=N)N)C(=O)N[C@@H](Cc1ccc(F)cc1)C(=O)N[C@@H](Cc1ccc(O)cc1)C(=O)N[C@@H](CCCNC(=N)N)C(=O)N[C@@H](Cc1c[nH]c2ccccc12)C(=O)N[C@@H](CCCNC(=N)N)C(N)=O [VII-31-B, Ac-Arg-Phe(4-F)-Tyr-Arg-Trp-Arg-NH2] (Ac-R[Phe(4-F)]YRWR-NH2)",54.4 ± 1.2%,0.81,
"CCCCCCC(=O)N[C@@H](CCCNC(=N)N)C(=O)N[C@@H](Cc1ccc(O)cc1)C(=O)N[C@@H](Cc1ccc(O)cc1)C(=O)N[C@@H](CCCNC(=N)N)C(=O)N[C@@H](Cc1c[nH]c2ccccc12)C(=O)N[C@@H](CCCNC(=N)N)C(N)=O [IV-18-C, Heptanoyl-RYYRWR-NH2] (Heptanoyl-RYYRWR-NH2)",,,[35S]GTPγS Binding Percent Stimulation (human ORL1 [1]; Table 1): 54%; IC50 (human ORL1 [2]): 2.6 nM
"CCC(=O)N[C@@H](CCCNC(=N)N)C(=O)N[C@@H](Cc1ccc(O)cc1)C(=O)N[C@@H](Cc1ccc(O)cc1)C(=O)N[C@@H](CCCNC(=N)N)C(=O)N[C@@H](Cc1c[nH]c2ccccc12)C(=O)N[C@@H](CCCNC(=N)N)C(N)=O [IV-16-C, Propionyl-RYYRWR-NH2] (Propionyl-RYYRWR-NH2)",,,[35S]GTPγS Binding Percent Stimulation (human ORL1 [1]; Table 1): 82%; agonist/antagonist character at ORL1 (human ORL1 [1]; in words): nearly full agonist; IC50 (human ORL1 [2]): 1.2 nM
"CC(=O)N[C@@H](CCCNC(=N)N)C(=O)N[C@@H](Cc1ccc(O)cc1)C(=O)N[C@@H](CCc1ccc([N+](=O)[O-])cc1[N+](=O)[O-])C(=O)N[C@@H](CCCNC(=N)N)C(=O)N[C@@H](Cc1c[nH]c2ccccc12)C(=O)N[C@@H](CCCNC(=N)N)C(N)=O [VII-71-B, Ac-Arg-Tyr-hPhe(2,4-di-NO2)-Arg-Trp-Arg-NH2] (Ac-RY[X1]RWR-NH2)",33.6 ± 16.8%,0.88,
Ac-RYYRWR-NH2 [Ac-RYYRWR-NH2] [listing 1 of 2 here],,,[35S]GTPγS Binding Percent Stimulation (human ORL1 [1]; Table 1): 100%
"CC(=O)N[C@@H](CCCNC(=N)N)C(=O)N[C@@H](Cc1ccc(O)cc1)C(=O)N[C@@H](Cc1ccc(O)cc1)C(=O)N[C@@H](CCCNC(=N)N)C(=O)N[C@@H](Cc1c[nH]c2ccccc12)C(=O)NCCCCCC(N)=O [VII-57-C, Ac-Arg-Tyr-Tyr-Arg-Trp-ε-aminocaproyl-NH2] (Ac-RYYRW[Ahx]-NH2)",37.4 ± 2.64%,0.95,
"CC(CN)C(=O)N[C@@H](CCCNC(=N)N)C(=O)N[C@@H](Cc1ccc(O)cc1)C(=O)N[C@@H](Cc1ccc(O)cc1)C(=O)N[C@@H](CCCNC(=N)N)C(=O)N[C@@H](Cc1c[nH]c2ccccc12)C(=O)N[C@@H](CCCNC(=N)N)C(N)=O (stereo partly drawn) [VII-3-A, β-aminoisobutryl-Arg-Tyr-Tyr-Arg-Trp-Arg-NH2] (ξβ2hAla-RYYRWR-NH2)",29.1 ± 1.9%,0.72,
"CC(=O)N[C@@H](CCCNC(=N)N)C(=O)N[C@@H](Cc1ccc(O)cc1)C(=O)N[C@@H](Cc1ccc([N+](=O)[O-])cc1)C(=O)N[C@@H](CCCNC(=N)N)C(=O)N[C@@H](Cc1c[nH]c2ccccc12)C(=O)N[C@@H](CCCNC(=N)N)C(N)=O [VII-63-B, Ac-Arg-Tyr-Phe(4-NO2)-Arg-Trp-Arg-NH2] (Ac-RY[Phe(4-NO2)]RWR-NH2)",43.2 ± 0.59%,1.01,
"CCCC(=O)N[C@@H](CCCNC(=N)N)C(=O)N[C@@H](Cc1ccc(O)cc1)C(=O)N[C@@H](Cc1ccc(O)cc1)C(=O)N[C@@H](CCCNC(=N)N)C(=O)N[C@@H](Cc1c[nH]c2ccccc12)C(=O)N[C@@H](CCCNC(=N)N)C(N)=O [IV-15-A, Butryl-RYYRWR-NH2] (Butyryl-RYYRWR-NH2)",,,[35S]GTPγS Binding Percent Stimulation (human ORL1 [1]; Table 1): 63%
"CC(=O)N[C@@H](CCCNC(=N)N)C(=O)N[C@H](C(=O)N[C@H](C(=O)N[C@@H](CCCNC(=N)N)C(=O)N[C@@H](Cc1c[nH]c2ccccc12)C(=O)N[C@@H](CCCNC(=N)N)C(N)=O)c1ccccc1)c1ccccc1 [VII-11-B, Ac-Arg-Phg-Phg-Arg-Trp-Arg-NH2] (Ac-R[Phg][Phg]RWR-NH2)",,0.93,
"CC(=O)N[C@@H](CN)C(=O)N[C@@H](Cc1ccc(O)cc1)C(=O)N[C@@H](Cc1ccc(O)cc1)C(=O)N[C@@H](CCCNC(=N)N)C(=O)N[C@@H](Cc1c[nH]c2ccccc12)C(=O)N[C@@H](CCCNC(=N)N)C(N)=O [VII-65-F, Ac-Dap-Tyr-Tyr-Arg-Trp-Arg-NH2] (Ac-[Dap]YYRWR-NH2)",13.7 ± 1.18%,1.1,"EC50 ± SEM, stimulation of [35S]GTPγS binding (human ORL1 [1]): FLAT"
"CC(=O)N[C@@H](CCCNC(=N)N)C(=O)N[C@@H](Cc1ccc(C(=O)O)cc1)C(=O)N[C@@H](Cc1ccc(O)cc1)C(=O)N[C@@H](CCCNC(=N)N)C(=O)N[C@@H](Cc1c[nH]c2ccccc12)C(=O)N[C@@H](CCCNC(=N)N)C(N)=O [VII-19-B, Ac-Arg-Phe(4-COOH)-Tyr-Arg-Trp-Arg-NH2] (Ac-R[Phe(4-COOH)]YRWR-NH2)",45.5 ± 8%,1.0,
Ac-RYYRWR-NH2 [Ac-RYYRWR-NH2] [listing 2 of 2 here],,,EC50 (human ORL1 [1]): 1.2 nM
